Read-outs that look alike come from different tables or passages of the source.
How the values were obtained:
PC3MM cells = assay: Cell Proliferation Assay (Cell Titer Glo), PC3MM; type: cell-based; details: read-out: CPEC50 PC3MM
Method: IV. Cell Proliferation Assay Protocol:
A2780, PC-3, or PC3MM cells were seeded at 1000 cells/well in 100 μL/well (10.000 cells/mL) growth media in 96-well plates. Cells were allowed to adhere to the bottom of plates for 3-5 hours in a 37° C. 5% CO2 incubator. Compounds were dissolved in DMSO and then transferred to the cell plates. The cells were incubated with the compounds for 3 days in a 37° C. 5% CO2 incubator. The growth medium containing the compounds was then removed from the cells and fresh medium was added, followed by 100 μL of Cell Titer Glo assay reagent (Promega). This mixture was shaken for 1 minute and then incubated without shaking for 10 minutes. Activity determinations for the compounds were made by detection on a Trilux Instrument.

PDK1 kinase = target: T1, PDK1 kinase (Homo sapiens, UniProt O15530); assay: PDK1 Kinase Alpha Screen Assay; type: biochemical; details: PDK1 Kinase Alpha Screen Assay; read-out: PDK1 IC50
T1 sequence (O15530 1-556): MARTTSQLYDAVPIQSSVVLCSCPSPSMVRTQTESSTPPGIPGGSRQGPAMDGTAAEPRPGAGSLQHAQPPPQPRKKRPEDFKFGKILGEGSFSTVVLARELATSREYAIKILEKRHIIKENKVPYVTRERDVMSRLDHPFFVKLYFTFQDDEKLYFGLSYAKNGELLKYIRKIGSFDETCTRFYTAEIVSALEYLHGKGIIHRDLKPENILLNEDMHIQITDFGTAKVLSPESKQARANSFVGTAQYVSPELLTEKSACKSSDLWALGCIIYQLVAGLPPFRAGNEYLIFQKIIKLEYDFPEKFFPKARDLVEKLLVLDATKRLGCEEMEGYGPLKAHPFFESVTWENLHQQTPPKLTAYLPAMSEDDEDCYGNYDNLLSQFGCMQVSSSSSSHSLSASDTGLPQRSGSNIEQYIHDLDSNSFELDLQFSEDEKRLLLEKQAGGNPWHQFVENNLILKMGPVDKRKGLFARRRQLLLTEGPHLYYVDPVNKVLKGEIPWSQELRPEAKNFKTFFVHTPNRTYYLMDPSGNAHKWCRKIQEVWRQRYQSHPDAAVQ
Outline: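 Test compounds were incubated with PDK1 kinase, 10 uM ATP and 50 nM biotinylated peptide substrate for 3-18 hours at pH 7.5 with 2.5% DMSO. Peptide phosphorylation was then detected by AlphaScreen proximity luminescence using a phospho-(Ser/Thr) PKA substrate antibody.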

A2780 cells = assay: Cell Proliferation Assay (Cell Titer Glo), A2780; type: cell-based; details: Homo sapiens, read-out: CPEC50 A2780
Outline: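 Cells seeded at 1000/well, allowed to adhere 3-5 h, then exposed to DMSO-dissolved compounds for 3 days at 37° C., 5% CO2. Medium replaced before Cell Titer Glo addition; luminescence read after 10 min.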

PC-3 cells = assay: Cell Proliferation Assay (Cell Titer Glo), PC-3 cell line; type: cell-based; details: Homo sapiens, read-out: CPEC50 PC3
Outline: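 PC-3 cells, 1000 cells/well, left to adhere 3-5 h, then exposed for 3 days at 37° C to compounds as 1:3 serial dilutions from 500× DMSO stocks diluted in growth medium. Medium then replaced with fresh medium and viability read by Cell Titer Glo luminescence.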

[1] = Cell Proliferation Assay, PC3MM cells
[2] = Cell Proliferation Assay, PC3MM
[3] = cell proliferation, A2780 cells
[4] = PC-3, cell proliferation, PC3 cells
[5] = Cell Proliferation Assay, A2780
[6] = PC-3, Cell Proliferation Assay, PC3

| SMILES | IC50 (PDK1 kinase) [µM] | EC50 (PC3MM cells; [2]) [µM] | also measured |
| --- | --- | --- | --- |
| COC(=O)Nc1cc(CN2CCOCC2)cc(Nc2ncc3ccc(-c4cnn(CCC(C)C)c4)c(OC)c3n2)c1 [Compound 716, methyl 3-(7-(1-isopentyl-1H-pyrazol-4-yl)-8-methoxyquinazolin-2-ylamino)-5-(morpholinomethyl)phenyl carbamate] | < 5 |  | EC50 (PC3MM cells; [1]): < 5 µM |
| COc1c(-c2cnn(CC(C)C)c2)ccc2cnc(Nc3cc(CN4CCOCC4)cc(NC(C)=O)c3)nc12 [Compound 715, N-(3-(7-(1-isobutyl-1H-pyrazol-4-yl)-8-methoxyquinazolin-2-ylamino)-5-(morpholinomethyl)phenyl)acetamide] | < 5 |  | EC50 (PC3MM cells; [1]): < 5 µM |
| NC(=O)c1cc(Nc2ncc3cc(-c4cn[nH]c4)cc(OC4CCNCC4)c3n2)cc(N2CCOCC2)c1 [Compound 663, 3-morpholino-5-(8-(piperidin-4-yloxy)-6-(1H-pyrazol-4-yl)quinazolin-2-ylamino)benzamide] | < 5 | 5 to 10 |  |
| COC(=O)Nc1cc(Nc2ncc3cc(-c4cn[nH]c4)c(OC4CCN(C)CC4)cc3n2)cc(-c2cn[nH]c2)c1 [Compound 676, methyl 3-(7-(1-methylpiperidin-4-yloxy)-6-(1H-pyrazol-4-yl)quinazolin-2-ylamino)-5-(1H-pyrazol-4-yl)phenylcarbamate] | < 5 | < 5 |  |
| CN1CCC(Oc2cc3nc(Nc4ccc5nc(C(F)(F)F)[nH]c5c4)ncc3cc2-c2nccs2)CC1 [Compound 681, 7-(1-methylpiperidin-4-yloxy)-6-(thiazol-2-yl)-N-(2-(trifluoromethyl)-1H-benzo[d]imidazol-6-yl)quinazolin-2-amine] | < 5 | 5 to 10 |  |
| CC(=O)Nc1cc(Nc2ncc3ccc(OC4CCNCC4)cc3n2)cc(-c2cn[nH]c2)c1 [Compound 659, N-(3-(7-(piperidin-4-yloxy)quinazolin-2-ylamino)-5-(1H-pyrazol-4-yl)phenyl)acetamide] | < 5 | < 5 |  |
| COC(=O)Nc1cc(CN2CCOCC2)cc(Nc2ncc3cccc(OC4CCNCC4)c3n2)c1 [Compound 656, methyl 3-(morpholinomethyl)-5-(8-(piperidin-4-yloxy)quinazolin-2-ylamino)phenylcarbamate] | < 5 | < 5 |  |
| C#Cc1cc(OC2CCNCC2)c2nc(Nc3cc(C(N)=O)cc(N4CCOCC4)c3)ncc2c1 [Compound 666, 3-(6-ethynyl-8-(piperidin-4-yloxy)quinazolin-2-ylamino)-5-morpholinobenzamide] | < 5 | 5 to 10 |  |
| C#Cc1cc(OC2CCNCC2)c2nc(Nc3cc(C(N)=O)cc(-c4cnn(C)c4)c3)ncc2c1 [Compound 668, 3-(6-ethynyl-8-(piperidin-4-yloxy)quinazolin-2-ylamino)-5-(1-methyl-1H-pyrazol-4-yl)benzamide] | < 5 | < 5 |  |
| CN1CCC(Oc2cc3nc(Nc4cc(C(N)=O)cc(N5CCOCC5)c4)ncc3cc2-c2cn[nH]c2)CC1 [Compound 677, 3-(7-(1-methylpiperidin-4-yloxy)-6-(1H-pyrazol-4-yl)quinazolin-2-ylamino)-5-morpholinobenzamide] | < 5 | 5 to 10 |  |
| COC(=O)Nc1cc(Nc2ncc3cc(-c4nccs4)c(OC4CCNCC4)cc3n2)cc(-c2cn[nH]c2)c1 [Compound 662, methyl 3-(7-(piperidin-4-yloxy)-6-(thiazol-2-yl)quinazolin-2-ylamino)-5-(1H-pyrazol-4-yl)phenylcarbamate] | < 5 | < 5 |  |
| CN1CCC(Oc2cc3nc(Nc4ccc(N5CCOCC5)cc4)ncc3cc2-c2cn[nH]c2)CC1 [Compound 654, 7-(1-methylpiperidin-4-yloxy)-N-(4-morpholinophenyl)-6-(1H-pyrazol-4-yl)quinazolin-2-amine] | < 5 | < 5 |  |
| C#Cc1cc(OC2CCNCC2)c2nc(Nc3cc(C(=O)N4CCOCC4)cc(N4CCOCC4)c3)ncc2c1 [Compound 667, (3-(6-ethynyl-8-(piperidin-4-yloxy)quinazolin-2-ylamino)-5-morpholinophenyl)(morpholino) methanone] | < 5 | < 5 |  |
| Cn1cc(-c2cc(Nc3ncc4cc(-c5cn[nH]c5)cc(OC5CCNCC5)c4n3)cc(C(N)=O)c2)cn1 [Compound 665, 3-(1-methyl-1H-pyrazol-4-yl)-5-(8-(piperidin-4-yloxy)-6-(1H-pyrazol-4-yl)quinazolin-2-ylamino)benzamide] | < 5 | 5 to 10 |  |
| CS(=O)(=O)c1cccc(-c2ccc3cnc(Nc4ccc(S(N)(=O)=O)cc4)nc3c2)c1 [Compound 787, 4-(7-(3-(methylsulfonyl)phenyl)quinazolin-2-ylamino)benzenesulfonamide] | < 5 |  | EC50 (PC3MM cells; cell proliferation, PC3MM cells): < 5 µM |
| CN1CCN(c2ccc(-c3c(-c4cnn(C)c4)ccc4cnc(Nc5ccc(S(N)(=O)=O)cc5)nc34)cn2)CC1 [Compound 910, 4-(7-(1-methyl-1H-pyrazol-4-yl)-8-(6-(4-methylpiperazin-1-yl)pyridin-3-yl)quinazolin-2-ylamino)benzenesulfonamide] | < 5 |  | EC50 (A2780 cells; [3]): < 5 µM; EC50 (PC-3 cells; [4]): < 5 µM |
| CC(C)Nc1ccc(-c2cc(F)cc3cnc(Nc4ccc(S(N)(=O)=O)cc4)nc23)cn1 [Compound 914, 4-(6-fluoro-8-(6-(isopropylamino)pyridin-3-yl)quinazolin-2-ylamino)benzenesulfonamide] | < 5 |  | EC50 (A2780 cells; [3]): < 5 µM; EC50 (PC-3 cells; [4]): < 5 µM |
| NS(=O)(=O)c1ccc(Nc2ncc3cc(F)cc(-c4ccc(NCCN5CCCC5)nc4)c3n2)cc1 [Compound 892, 4-(6-fluoro-8-(6-(2-(pyrroidin-1-yl)ethylamino)pyridin-3-yl)quinazolin-2-ylamino)benzenesulfonamide] | < 5 |  | EC50 (A2780 cells; [3]): < 5 µM; EC50 (PC-3 cells; [4]): < 5 µM |
| CC(C)Oc1cccc2cnc(Nc3ccc(S(N)(=O)=O)cc3)nc12 [Compound 511, 4-(8-isopropoxyquinazolin-2-ylamino)benzenesulfonamide] | < 5 |  | EC50 (A2780 cells; [5]): < 5 µM; EC50 (PC-3 cells; [6]): < 5 µM |
| C#Cc1cc2cnc(Nc3ccc(N4CCOCC4)cc3)nc2cc1OC1CCNCC1 [Compound 646, 6-Ethynyl-N-(4-morpholinophenyl)-7-(piperidin-4-yloxy)quinazolin-2-amine] | < 5 |  | EC50 (A2780 cells; [5]): < 5 µM; EC50 (PC-3 cells; [6]): < 5 µM |
| CN1CCN(C(=O)c2ccc(-c3c(-c4cnn(C)c4)ccc4cnc(Nc5ccc(S(N)(=O)=O)cc5)nc34)cc2)CC1 [Compound 906, 4-(7-(1-methyl-1H-pyrazol-4-yl)-8-(4-(4-methylpiperazine-1-carbonyl)phenyl)quinazolin-2-ylamino)benzenesulfonamide] | < 5 |  | EC50 (A2780 cells; [3]): < 5 µM; EC50 (PC-3 cells; [4]): < 5 µM |
| Nc1ccc(-c2cc(F)cc3cnc(Nc4ccc(S(N)(=O)=O)cc4)nc23)cn1 [Compound 885, 4-(8-(6-aminopyridin-3-yl)-6-fluoroquinazolin-2-ylamino)benzenesulfonamide] | < 5 |  | EC50 (A2780 cells; [3]): < 5 µM; EC50 (PC-3 cells; [4]): < 5 µM |
| COCCNc1ccc(-c2c(-c3cnn(C)c3)ccc3cnc(Nc4ccc(S(N)(=O)=O)cc4)nc23)cn1 [Compound 908, 4-(8-(6-(2-methoxyethylamino)pyridin-3-yl)-7-(1-methyl-1H-pyrazol-4-yl)quinazolin-2-ylamino)benzenesulfonamide] | < 5 |  | EC50 (A2780 cells; [3]): < 5 µM; EC50 (PC-3 cells; [4]): < 5 µM |
| Cc1cc2cnc(Nc3ccc(N4CCOCC4)cc3)nc2cc1OC1CCNCC1 [Compound 647, 6-methyl-N-(4-morpholinophenyl)-7-(piperidin-4-yloxy)quinazolin-2-amine] | < 5 |  | EC50 (A2780 cells; [5]): < 5 µM; EC50 (PC-3 cells; [6]): < 5 µM |
